The values below come from publication PMC5939083 (Proceedings of the National Academy of Sciences of the …, 2018).

This assay addresses T1, CYP9K1 (Anopheles gambiae, UniProt Q8T633).
T1 sequence (Q8T633 1-531): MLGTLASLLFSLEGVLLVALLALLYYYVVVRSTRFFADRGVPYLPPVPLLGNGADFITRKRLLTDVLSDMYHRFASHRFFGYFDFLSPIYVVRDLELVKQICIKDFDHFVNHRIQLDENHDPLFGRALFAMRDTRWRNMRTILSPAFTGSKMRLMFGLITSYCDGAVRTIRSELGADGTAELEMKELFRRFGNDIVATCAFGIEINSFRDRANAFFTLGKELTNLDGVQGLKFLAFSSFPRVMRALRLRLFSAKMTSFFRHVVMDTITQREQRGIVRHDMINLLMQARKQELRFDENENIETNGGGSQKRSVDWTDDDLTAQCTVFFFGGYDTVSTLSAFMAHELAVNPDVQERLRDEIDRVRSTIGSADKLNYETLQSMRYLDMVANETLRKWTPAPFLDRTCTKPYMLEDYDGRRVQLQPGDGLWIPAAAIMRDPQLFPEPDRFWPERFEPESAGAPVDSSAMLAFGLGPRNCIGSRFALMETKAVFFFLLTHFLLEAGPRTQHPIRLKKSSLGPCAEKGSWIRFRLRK
T1 sequence (Q86QH5 1-679 partner): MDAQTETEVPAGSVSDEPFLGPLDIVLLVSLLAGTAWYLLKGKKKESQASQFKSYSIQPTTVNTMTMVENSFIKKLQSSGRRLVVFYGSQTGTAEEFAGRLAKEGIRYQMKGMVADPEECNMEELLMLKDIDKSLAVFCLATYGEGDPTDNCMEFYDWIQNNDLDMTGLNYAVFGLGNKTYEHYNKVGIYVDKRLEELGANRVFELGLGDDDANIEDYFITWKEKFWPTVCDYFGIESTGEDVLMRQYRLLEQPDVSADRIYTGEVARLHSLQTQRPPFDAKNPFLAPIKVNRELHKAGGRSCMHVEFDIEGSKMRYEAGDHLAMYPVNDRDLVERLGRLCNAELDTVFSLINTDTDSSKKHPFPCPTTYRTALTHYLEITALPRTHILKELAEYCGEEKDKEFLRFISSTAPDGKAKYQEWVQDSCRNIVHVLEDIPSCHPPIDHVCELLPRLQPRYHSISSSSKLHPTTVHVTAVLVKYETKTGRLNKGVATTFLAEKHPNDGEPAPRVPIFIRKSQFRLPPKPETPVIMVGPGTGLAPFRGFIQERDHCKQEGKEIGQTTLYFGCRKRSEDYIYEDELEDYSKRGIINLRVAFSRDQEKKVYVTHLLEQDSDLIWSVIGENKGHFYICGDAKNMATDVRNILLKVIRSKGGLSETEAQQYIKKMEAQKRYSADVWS
T1 sequence (Q86QH4 1-128 partner): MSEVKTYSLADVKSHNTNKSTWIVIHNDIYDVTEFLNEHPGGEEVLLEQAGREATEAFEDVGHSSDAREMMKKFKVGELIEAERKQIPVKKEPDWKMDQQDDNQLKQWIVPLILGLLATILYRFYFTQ
Kind of assay: HPLC substrate depletion, Michaelis-Menten fit. The following applies: NADPH generating system; AgCPR, AgCytb5; Tris-HCl 0.2 M pH 7.4, 0.25 mM MgCl2, 30 °C; 0.5-150 μM deltamethrin. In kind it is biochemical.

Take `CC1(C)[C@H](C(=O)O[C@H](C#N)c2cccc(Oc3ccccc3)c2)[C@@H]1C=C(Br)Br` [deltamethrin]: the Km is 28.2 µM.

By Km is commonly meant the concentration of substrate that gives half-maximal velocity.
